Source: patent publication US4228304A, “Novel cyclohexanecarboxylic acid and its derivatives” (Hisamitsu Pharmaceutical Co. Inc., priority 1977, dated 1980)

Legend:
[1] = test system: rat adjuvant polyarthritis; experiment: Effect on rat adjuvant polyarthritis; format: in vivo, rat (Sprague Dawley strain); conditions: oral daily: Compound No. 1 200 mg/kg, Ibuprofen 50 mg/kg, Prednisolone 0.5 mg/kg
Procedure: (5) Effect on rat adjuvant polyarthritis
A group of eight to ten male Sprague Dawley strain rats (body weight 240-280 g) were used. 0.1 ml of Complete Freuind's adjuvant (CFA, Mycobacterium butyricum, 100 mg/10 cc) was injected intradermally to the right hind sole.

Acute toxicity (mouse) = conditions: in vivo
Procedure: (§1) Each test compound suspended in 0.5% tragacanth gum-saline was administered orally, subcutaneously or intraperitoneally to animals ddY strain mouse and Wistar strain rats. The 50% lethal dose and the 95% confidence limit were calculated by Litchfield-Wilcoxon's method from the death of animals in 3 weeks following administration.

dog = experiment: Acute toxicity (dog); format: in vivo; conditions: female dog, p.o.; 30240 min
Acute toxicity (dog) = format: in vivo; conditions: in vivo, po; male dog
[2] = test system: passive cutaneous anaphylaxis in rat; experiment: Homologeous passive cutaneous anaphylaxis in rat; format: in vivo, rat (Wistar strain); conditions: 100 mg/kg, orally; exuded pigment vs control
Procedure: (2) Homologeous passive cutaneous anaphylaxis in rat Each test compound suspended in 0.5% tragacanth gum-distilled water was administered orally to a group of five male Wistar strain rats (body weight 150-200 g). After one hour 0.1 ml of 5% anti-Dinitrophinol conpled Ascaris rat IgE serum-physiological sodium chloride solution was injected intradermally to dorsum of the rat. […] The animals were sacrificed by decapitation 30 minutes after the injection. Thereafter the skin of the animals were removed and the amount of the pigment exuded into the inflamed skin was determined. The percent inhibitions were calculated by the ratio of the amounts of exuded pigments to the control.

Acute toxicity (rat) = conditions: in vivo
Procedure: as §1

[3] = test system: Picryl Chloride induced contact dermatitis; experiment: Picryl Chloride induced contact dermatitis; format: in vivo, mouse (ddY strain); conditions: Mus musculus, po; 100 mg/kg, orally; ear swelling 24 hours after second challenge
Procedure: (3) Picryl Chloride induced contact dermatitis
At first 0.1 ml of 7% picryl chloride-ethanol solution was applied to skin of the depilated abdomens (area 2.5×15 mm) of ddY-strain male mice (body weight 20-22 g). After one week each 0.02 ml of 1% picryl chloride-olive oil solution was applied topically to the ears of the mouse. […] After three days 0.1 ml of 7% picryl chloride-ethanol solution was applied again to the depilated abdomens of the mice. After one week, each 0.02 ml of 1% picryl chloride-olive oil solution per ear were applied topically to the bilateral ears, and at same time, the test compounds were administered orally. Immediately before and 24 hours after the second challenge, the thickness of the ears was measured and the swelling was calculated. The percent inhibitions were calculated by the ratio of the each swelling to the control.

Acute toxicity (rabbit) = conditions: in vivo, po; female rabbit
[4] = test system: lung fragment of guinea pig; experiment: Mediator (histamine) release on lung fragment of guinea pig; format: cell-based, guinea pig (Hartley strain); conditions: 10^-4 g/ml
Procedure: (4) Mediator release on lung fragment of guinea pig.
A group of Hartley strain male guinea pigs (body weight 250-300 g) were administered intraperitoneally anti-BPO-BGG IgE serum. The animals were sacrificed by decapitation, and those sensitized lungs were isolated for use. […] Following 10 minute incubation, the amount of the released histamine were determined by bioassay.

Question: Which “Swelling percent of left hind paw (non-treatment of CFA)” value ([1]; day 0) does the source give for `CC(C)CCC[C@H]1CC[C@@](C)(C(=O)O)CC1` [Compound No. 1, cis-4-isohexyl-1-methylcyclohexanecarboxylic acid] here?
Answer: -1.3±1.8%

Question: What about the “Swelling percent of right hind paw (treatment of CFA)” value (“Swelling percent of right hind paw” below) ([1]; day 0) of the same compound?
Answer: 118.1± 5.0%

Question: And the “Swelling percent of left hind paw (non-treatment of CFA)” value ([1]; day 1)?
Answer: -3.0±1.2%

Question: And the “Swelling percent of right hind paw” value ([1]; day 1)?
Answer: 100.0± 5.3%

Question: And the “Swelling percent of left hind paw (non-treatment of CFA)” value ([1]; day 4)?
Answer: -0.8±2.0%

Question: What about the “Swelling percent of right hind paw” value ([1]; day 4) of the same compound?
Answer: 255.4±13.8%

Question: And the “Swelling percent of left hind paw (non-treatment of CFA)” value ([1]; day 7)?
Answer: 4.5±3.3%

Question: What about the “Swelling percent of right hind paw” value ([1]; day 7) of the same compound?
Answer: 216.3±12.8%

Question: And the “Swelling percent of left hind paw (non-treatment of CFA)” value ([1]; day 10)?
Answer: 11.8±2.4%

Question: And the “Swelling percent of right hind paw” value ([1]; day 10)?
Answer: 173.8± 7.1%

Question: What about the “Swelling percent of left hind paw (non-treatment of CFA)” value ([1]; day 14) of the same compound?
Answer: 13.3±1.6%

Question: And the “Swelling percent of right hind paw” value ([1]; day 14)?
Answer: 169.5± 8.0%

Question: And the “Swelling percent of left hind paw (non-treatment of CFA)” value ([1]; day 17)?
Answer: 13.2±1.7%

Question: What about the “Swelling percent of right hind paw” value ([1]; day 17) of the same compound?
Answer: 166.0± 8.6%

Question: What about the “Swelling percent of left hind paw (non-treatment of CFA)” value ([1]; day 21) of the same compound?
Answer: 8.5±2.0%

Question: And the “Swelling percent of right hind paw” value ([1]; day 21)?
Answer: 163.0±10.5%

Question: And the LD50 at 504 h (Acute toxicity (mouse); ip, female mouse)?
Answer: 998 mg/kg

Question: What about the LD50 at 504 h (Acute toxicity (mouse); ip, male mouse) of the same compound?
Answer: 1110 mg/kg

Question: What about the LD50 at 504 h (Acute toxicity (mouse); po, female mouse) of the same compound?
Answer: 6390 mg/kg

Question: And the LD50 at 504 h (Acute toxicity (mouse); po, male mouse)?
Answer: 5950 mg/kg

Question: What about the LD50 at 504 h (Acute toxicity (mouse); sc, female mouse) of the same compound?
Answer: > 10000 mg/kg

Question: What about the LD50 at 504 h (Acute toxicity (mouse); sc, male mouse) of the same compound?
Answer: > 10000 mg/kg

Question: And the LD50 (dog)?
Answer: > 5000 mg/kg

Question: And the LD50 at 504 h (Acute toxicity (dog))?
Answer: > 5000 mg/kg

Question: What about the Inhibition [2] of the same compound?
Answer: 28%

Question: What about the LD50 at 504 h (Acute toxicity (rat); ip, female rat) of the same compound?
Answer: 1690 mg/kg

Question: And the LD50 at 504 h (Acute toxicity (rat); ip, male rat)?
Answer: 2070 mg/kg

Question: And the LD50 at 504 h (Acute toxicity (rat); po, female rat)?
Answer: > 10000 mg/kg

Question: And the LD50 at 504 h (Acute toxicity (rat); po, male rat)?
Answer: > 10000 mg/kg

Question: And the LD50 at 504 h (Acute toxicity (rat); sc, female rat)?
Answer: > 10000 mg/kg

Question: And the LD50 at 504 h (Acute toxicity (rat); sc, male rat)?
Answer: > 10000 mg/kg

Question: And the inhibition in vivo at 100 mg/kg [3]?
Answer: 49%

Question: What about the LD50 at 504 h (Acute toxicity (rabbit)) of the same compound?
Answer: > 6000 mg/kg

Question: What about the “inhibition (released histamine)” value [4] of the same compound?
Answer: 24.2%
